Assay results taken from PubChem BioAssay AID1963862 (Molecular Pharmacology Branch, DTP, NCI, 2024).

Tested on: KRAS patient-derived spheroids with HUVEC/MSC, viability
Assay: Anticancer human tumor 941728-121-R-J1-PDC patient-derived lung adenocarcinoma cell line growth inhibition [KRAS2]
Conditions: for viability, T/C: stronger effect = lower value
How it was run: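 Combination screen of spheroid viability in tumor-cell co-cultures with endothelial (HUVEC) and mesenchymal stem cell stroma. Each agent was tested in half-log dilutions, topping at clinical Cmax or at 10 microM without a known Cmax.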

[1] = curve of first compound, second compound 0.1 µM
[2] = curve of first compound, second compound 0.316 µM
[3] = curve of first compound, second compound 1 µM
[4] = curve of first compound, second compound 3.16 µM
[5] = curve of first compound, second compound 10 µM
[6] = second compound 0.1 µM, first compound 0.0316 µM
[7] = second compound 0.1 µM, first compound 0.1 µM
[8] = second compound 0.1 µM, first compound 0.316 µM
[9] = second compound 0.1 µM, first compound 1 µM
[10] = second compound 0.1 µM, first compound 3.16 µM
[11] = second compound 0.1 µM, first compound 10 µM
[12] = second compound 0.316 µM, first compound 0.0316 µM
[13] = second compound 0.316 µM, first compound 0.1 µM
[14] = second compound 0.316 µM, first compound 0.316 µM
[15] = second compound 0.316 µM, first compound 1 µM
[16] = second compound 0.316 µM, first compound 3.16 µM
[17] = second compound 0.316 µM, first compound 10 µM
[18] = second compound 1 µM, first compound 0.0316 µM
[19] = second compound 1 µM, first compound 0.1 µM
[20] = second compound 1 µM, first compound 0.316 µM
[21] = second compound 1 µM, first compound 1 µM
[22] = second compound 1 µM, first compound 3.16 µM
[23] = second compound 1 µM, first compound 10 µM
[24] = second compound 3.16 µM, first compound 0.0316 µM
[25] = second compound 3.16 µM, first compound 0.1 µM
[26] = second compound 3.16 µM, first compound 0.316 µM
[27] = second compound 3.16 µM, first compound 1 µM
[28] = second compound 3.16 µM, first compound 3.16 µM
[29] = second compound 3.16 µM, first compound 10 µM
[30] = second compound 10 µM, first compound 0.0316 µM
[31] = second compound 10 µM, first compound 0.1 µM
[32] = second compound 10 µM, first compound 0.316 µM
[33] = second compound 10 µM, first compound 1 µM
[34] = second compound 10 µM, first compound 3.16 µM
[35] = second compound 10 µM, first compound 10 µM
[36] = second compound 0.1 µM, first compound 0.0001 µM
[37] = second compound 0.1 µM, first compound 0.000316 µM
[38] = second compound 0.1 µM, first compound 0.001 µM
[39] = second compound 0.1 µM, first compound 0.00316 µM
[40] = second compound 0.1 µM, first compound 0.01 µM
[41] = second compound 0.316 µM, first compound 0.0001 µM
[42] = second compound 0.316 µM, first compound 0.000316 µM
[43] = second compound 0.316 µM, first compound 0.001 µM
[44] = second compound 0.316 µM, first compound 0.00316 µM
[45] = second compound 0.316 µM, first compound 0.01 µM
[46] = second compound 1 µM, first compound 0.0001 µM
[47] = second compound 1 µM, first compound 0.000316 µM
[48] = second compound 1 µM, first compound 0.001 µM
[49] = second compound 1 µM, first compound 0.00316 µM
[50] = second compound 1 µM, first compound 0.01 µM
[51] = second compound 3.16 µM, first compound 0.0001 µM
[52] = second compound 3.16 µM, first compound 0.000316 µM
[53] = second compound 3.16 µM, first compound 0.001 µM
[54] = second compound 3.16 µM, first compound 0.00316 µM
[55] = second compound 3.16 µM, first compound 0.01 µM
[56] = second compound 10 µM, first compound 0.00316 µM
[57] = second compound 10 µM, first compound 0.01 µM
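Further: spheroids exposed to agents for seven days before readout.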

SMILES: O=C(c1cc(Cc2n[nH]c(=O)c3ccccc23)ccc1F)N1CCN(C(=O)C2CC2)CC1 + COc1cc2nc(C)nc(NC(C)c3cc(N)cc(C(F)(F)F)c3)c2cc1OC1CCOC1
- IC50 [1]: > 10000 nM
- IC50 [2]: > 10000 nM
- IC50 [3]: > 10000 nM
- IC50 [4]: < 31.6 nM
- IC50 [5]: 46.7 nM
- viability, T/C [6]: 60%
- viability, T/C [7]: 105%
- viability, T/C [8]: 59.7%
- viability, T/C [9]: 93.4%
- viability, T/C [10]: 120%
- viability, T/C [11]: 79.2%
- viability, T/C [12]: 54.1%
- viability, T/C [13]: 57.4%
- viability, T/C [14]: 55.9%
- viability, T/C [15]: 56.9%
- viability, T/C [16]: 64.4%
- viability, T/C [17]: 66.2%
- viability, T/C [18]: 103%
- viability, T/C [19]: 114%
- viability, T/C [20]: 126%
- viability, T/C [21]: 124%
- viability, T/C [22]: 103%
- viability, T/C [23]: 100%
- viability, T/C [24]: 47.7%
- viability, T/C [25]: 50.5%
- viability, T/C [26]: 49%
- viability, T/C [27]: 59.8%
- viability, T/C [28]: 56.9%
- viability, T/C [29]: 54.9%
- viability, T/C [30]: 60.5%
- viability, T/C [31]: 29.5%
- viability, T/C [32]: 26.1%
- viability, T/C [33]: 33.6%
- viability, T/C [34]: 20.9%
- viability, T/C [35]: 27.6%

SMILES: CC(=O)Nc1cccc(-n2c(=O)n(C3CC3)c(=O)c3c(Nc4ccc(I)cc4F)n(C)c(=O)c(C)c32)c1 + C=CC(=O)N1CCN(c2nc(OCC3CCCN3C)nc3c2CCN(c2cccc4cccc(C)c24)C3)CC1CC#N
- IC50 (curve of first compound, second compound 0.0316 µM): < 0.1 nM
- IC50 [1]: < 0.1 nM
- IC50 [2]: < 0.1 nM
- IC50 [3]: < 0.1 nM
- IC50 [4]: < 0.1 nM
- viability, T/C (second compound 0.0316 µM, first compound 0.0001 µM): 31%
- viability, T/C (second compound 0.0316 µM, first compound 0.000316 µM): 26.4%
- viability, T/C (second compound 0.0316 µM, first compound 0.001 µM): 25.9%
- viability, T/C (second compound 0.0316 µM, first compound 0.00316 µM): 25.4%
- viability, T/C (second compound 0.0316 µM, first compound 0.01 µM): 24.2%
- viability, T/C (second compound 0.0316 µM, first compound 0.0316 µM): 25.1%
- viability, T/C [36]: 30.9%
- viability, T/C [37]: 26.7%
- viability, T/C [38]: 25.4%
- viability, T/C [39]: 25.5%
- viability, T/C [40]: 21.2%
- viability, T/C [6]: 22%
- viability, T/C [41]: 29.2%
- viability, T/C [42]: 27.2%
- viability, T/C [43]: 23.4%
- viability, T/C [44]: 24.1%
- viability, T/C [45]: 22.1%
- viability, T/C [12]: 22.9%
- viability, T/C [46]: 24%
- viability, T/C [47]: 22.9%
- viability, T/C [48]: 19%
- viability, T/C [49]: 21.3%
- viability, T/C [50]: 20%
- viability, T/C [18]: 22.6%
- viability, T/C [51]: 0.84%
- viability, T/C [52]: 0.35%
- viability, T/C [53]: 1.24%
- viability, T/C [54]: 0.89%
- viability, T/C [55]: 1.14%
- viability, T/C [24]: 0.53%

SMILES: COC(=O)c1ccc2c(C(=Nc3ccc(N(C)C(=O)CN4CCN(C)CC4)cc3)c3ccccc3)c(O)[nH]c2c1
- viability, T/C (compound 0.1 µM): 77.9% [middle of 5 runs]
- viability, T/C (compound 1 µM): 68.6% [middle of 5 runs]
- viability, T/C (compound 3.16 µM): 69% [middle of 5 runs]
- viability, T/C (compound 10 µM): 64% [middle of 5 runs]
- IC50 (curve of compound): > 10000 nM

SMILES: CC(=O)Nc1cccc(-n2c(=O)n(C3CC3)c(=O)c3c(Nc4ccc(I)cc4F)n(C)c(=O)c(C)c32)c1 + CC1OCC2(CCN(c3cnc(Sc4ccnc(N)c4Cl)c(N)n3)CC2)C1N
- IC50 [1]: < 0.1 nM
- IC50 [2]: < 0.1 nM
- IC50 [3]: < 0.1 nM
- IC50 [4]: < 0.1 nM
- IC50 [5]: < 0.1 nM
- viability, T/C [36]: 47.1%
- viability, T/C [37]: 40.5%
- viability, T/C [38]: 40.2%
- viability, T/C [39]: 39.1%
- viability, T/C [40]: 36.4%
- viability, T/C [6]: 27.9%
- viability, T/C [41]: 38.1%
- viability, T/C [42]: 39.2%
- viability, T/C [43]: 34.3%
- viability, T/C [44]: 30.9%
- viability, T/C [45]: 26.4%
- viability, T/C [12]: 23.1%
- viability, T/C [46]: 32.4%
- viability, T/C [47]: 31.1%
- viability, T/C [48]: 24.8%
- viability, T/C [49]: 22%
- viability, T/C [50]: 21.4%
- viability, T/C [18]: 18.2%
- viability, T/C [51]: 21.6%
- viability, T/C [52]: 17.2%
- viability, T/C [53]: 14.5%
- viability, T/C [54]: 15.1%
- viability, T/C [55]: 14.5%
- viability, T/C [24]: 13.6%
- viability, T/C (second compound 10 µM, first compound 0.0001 µM): 15.2%
- viability, T/C (second compound 10 µM, first compound 0.000316 µM): 12.9%
- viability, T/C (second compound 10 µM, first compound 0.001 µM): 11.8%
- viability, T/C [56]: 10.4%
- viability, T/C [57]: 12.7%
- viability, T/C [30]: 10.6%

SMILES: CCN1CCN(Cc2ccc(Nc3ncc(F)c(-c4cc(F)c5nc(C)n(C(C)C)c5c4)n3)nc2)CC1 + CC1OCC2(CCN(c3cnc(Sc4ccnc(N)c4Cl)c(N)n3)CC2)C1N
- IC50 [1]: < 3.16 nM
- IC50 [2]: < 3.16 nM
- IC50 [3]: < 3.16 nM
- IC50 [4]: < 3.16 nM
- IC50 [5]: < 3.16 nM
- viability, T/C [39]: 47.5%
- viability, T/C [40]: 40.5%
- viability, T/C [6]: 36.2%
- viability, T/C [7]: 35.9%
- viability, T/C [8]: 37.5%
- viability, T/C [9]: 44.4%
- viability, T/C [44]: 35.3%
- viability, T/C [45]: 31.2%
- viability, T/C [12]: 30.5%
- viability, T/C [13]: 31.7%
- viability, T/C [14]: 24.3%
- viability, T/C [15]: 26%
- viability, T/C [49]: 32.5%
- viability, T/C [50]: 29.4%
- viability, T/C [18]: 29.1%
- viability, T/C [19]: 28.5%
- viability, T/C [20]: 23.1%
- viability, T/C [21]: 17.5%
- viability, T/C [54]: 25.8%
- viability, T/C [55]: 25.4%
- viability, T/C [24]: 24.2%
- viability, T/C [25]: 24.4%
- viability, T/C [26]: 16.5%
- viability, T/C [27]: 13.5%
- viability, T/C [56]: 22.9%
- viability, T/C [57]: 22.7%
- viability, T/C [30]: 19.6%
- viability, T/C [31]: 15.6%
- viability, T/C [32]: 9.09%
- viability, T/C [33]: 9.79%

SMILES: COc1cc(Nc2ncc3c(n2)-c2ccc(Cl)cc2C(c2c(F)cccc2OC)=NC3)ccc1C(=O)O + CC1OCC2(CCN(c3cnc(Sc4ccnc(N)c4Cl)c(N)n3)CC2)C1N
- IC50 [1]: 137 nM
- IC50 [2]: < 31.6 nM
- IC50 [3]: < 31.6 nM
- IC50 [4]: < 31.6 nM
- IC50 [5]: < 31.6 nM
- viability, T/C [6]: 53.1%
- viability, T/C [7]: 47.6%
- viability, T/C [8]: 48.5%
- viability, T/C [9]: 48.5%
- viability, T/C [10]: 50.3%
- viability, T/C [11]: 41.6%
- viability, T/C [12]: 42.3%
- viability, T/C [13]: 41.9%
- viability, T/C [14]: 40.2%
- viability, T/C [15]: 39.2%
- viability, T/C [16]: 36.6%
- viability, T/C [17]: 35.3%
- viability, T/C [18]: 29.8%
- viability, T/C [19]: 33.4%
- viability, T/C [20]: 36.6%
- viability, T/C [21]: 34.6%
- viability, T/C [22]: 28%
- viability, T/C [23]: 23.9%
- viability, T/C [24]: 23.7%
- viability, T/C [25]: 25.4%
- viability, T/C [26]: 26.9%
- viability, T/C [27]: 26.6%
- viability, T/C [28]: 13%
- viability, T/C [29]: 14.5%
- viability, T/C [30]: 16%
- viability, T/C [31]: 15.4%
- viability, T/C [32]: 13.4%
- viability, T/C [33]: 13.6%
- viability, T/C [34]: 12.4%
- viability, T/C [35]: 9.18%

SMILES: Cn1ncnc1[C@H]1c2n[nH]c(=O)c3cc(F)cc(c23)N[C@@H]1c1ccc(F)cc1
- viability, T/C (compound 0.000316 µM): 98.9% [middle of 5 runs]
- viability, T/C (compound 0.001 µM): 104% [middle of 5 runs]
- viability, T/C (compound 0.00316 µM): 91.5% [middle of 5 runs]
- viability, T/C (compound 0.01 µM): 93.2% [middle of 5 runs]
- IC50 (curve of compound): > 100 nM
